# Measured values published in US20100130457A1, “Phenothiazine Derivatives for Treatment of Asthma” (Immune Control, Inc., priority 2008, published 2010).
# “Also recorded” adds a separate entry of the source.
# Experiments:
# [1] = tested on: BALB/c mice, Af-induced allergic airway inflammation and hyperresponsiveness; assay: Murine Aspergillus fumigatus (Af)-induced asthma model, methacholine-induced lung resistance / airway hyperresponsiveness; assay type: in vivo, mouse
# Text: (§1) The following experiments were designed to test the efficacy of the compounds of the invention on a murine asthma model. A murine model of Aspergillus fumigatus (Af)-induced allergic airway inflammation and hyperresponsiveness was adapted from Haczku et al. (2001 Am. J. Respir. Cell Mol. Biol. 25: 45-50) to determine the activity of the candicate compounds (FIG. 2).
# Briefly, BALB/c mice were sensitized intraperitoneally and challenged intranasally with Af extract as a form of a type of allergen challenge in the presence or absence of dexamethasone. With respect to sensitization, “naïve” mice received intranasal vehicle challenges only, with phosphate-buffered saline (PBS) where as “sensitized’ mice were injected intraperitoneally with 25 μg Af together with alum in 100 μl of PBS on days 1 and 14, followed by intranasal challenge on days 25, 26, and 27 with 25 μg of Af extract in 40 PBS μl in the presence or absence of dexamethasone (2.5 mg/kg in 100 μl saline). On day 28, sensitized mice were treated with the test compound (0.1, 1.0, 10 mg/kg) either one hour before or simultaneously with methacholine challenge (2.5, 5, 10, 20 mg/mL). Methacholine challenge is to induce airway constriction.
# as §1, with “eradicate” for “candicate”, “11).” for “2).”
# Briefly, BALB/c mice were sensitized intraperitoneally and challenged intranasally with Af extract as a form of a type of allergen challenge in the presence or absence of dexamethasone. With respect to sensitization, “naïve” mice received intranasal vehicle challenges only, with phosphate-buffered saline (PBS) where as “sensitized’ mice were injected intraperitoneally with 25 μg Af together with alum in 100 μl of PBS on days 1 and 14, followed by intranasal challenge on days 25, 26, and 27 with 25 μg of Af extract in 40 PBS μl in the presence or absence of dexamethasone (2.5 mg/kg in 100 μl saline) in combination with either o.g. treatment with ICI-735 (1 mg/kg or 10 mg/kg) or i.p. treatment with ICI-735 1 mg/kg. On day 28, sensitized mice were treated with methacholine challenge (2.5, 5, 10, 20 mg/mL). Methacholine challenge is to induce airway constriction.
# With respect to the murine model of allergen induced AHR, BALB/c mice were sensitized and challenged via intranasal instillation of Aspergillus fumigatus (Af). […] Four hours after the last allergen challenge, airway function was assessed by flexivent. […]
# [2] = tested on: BALB/c mice, Af-induced allergic airway inflammation; assay: Bronchoalveolar lavage (BAL) analysis for cell count and cytokines in the asthma model; assay type: in vivo, mouse
# Method: Lungs from the tested animals in Example 2 were lavaged with either a small volume (1 ml) of sterile PBS or a large volume (5 ml) of sterile saline, and total and differential cell counts were performed as described previously (Haczku et al., 1999 Am. J. Respir. Crit. Care Med. 159: 1638-1643; Haczku et al., 2000 Am. J. Respir. Crit. Care Med. 161: 952-960).
# With respect to the murine model of allergen induced AHR, BALB/c mice were sensitized and challenged via intranasal instillation of Aspergillus fumigatus (Af). Two hours prior to each intranasal challenge, cohorts of five mice were administered intra peritonially (i.p.) with ICI-735 (1 mg/ml), dexamethasone (10 mg/ml). Four hours after the last allergen challenge, airway function was assessed by flexivent. Differential cytokine and immune cell abundance were also accessed in BAL fluid.
# Nav1.5 = Nav1.5 (Homo sapiens, UniProt Q14524); assay: Effects on action potential in a mammalian cell, sodium channel block; assay type: cell-based
# Chain of Nav1.5 (Q14524 whole entry): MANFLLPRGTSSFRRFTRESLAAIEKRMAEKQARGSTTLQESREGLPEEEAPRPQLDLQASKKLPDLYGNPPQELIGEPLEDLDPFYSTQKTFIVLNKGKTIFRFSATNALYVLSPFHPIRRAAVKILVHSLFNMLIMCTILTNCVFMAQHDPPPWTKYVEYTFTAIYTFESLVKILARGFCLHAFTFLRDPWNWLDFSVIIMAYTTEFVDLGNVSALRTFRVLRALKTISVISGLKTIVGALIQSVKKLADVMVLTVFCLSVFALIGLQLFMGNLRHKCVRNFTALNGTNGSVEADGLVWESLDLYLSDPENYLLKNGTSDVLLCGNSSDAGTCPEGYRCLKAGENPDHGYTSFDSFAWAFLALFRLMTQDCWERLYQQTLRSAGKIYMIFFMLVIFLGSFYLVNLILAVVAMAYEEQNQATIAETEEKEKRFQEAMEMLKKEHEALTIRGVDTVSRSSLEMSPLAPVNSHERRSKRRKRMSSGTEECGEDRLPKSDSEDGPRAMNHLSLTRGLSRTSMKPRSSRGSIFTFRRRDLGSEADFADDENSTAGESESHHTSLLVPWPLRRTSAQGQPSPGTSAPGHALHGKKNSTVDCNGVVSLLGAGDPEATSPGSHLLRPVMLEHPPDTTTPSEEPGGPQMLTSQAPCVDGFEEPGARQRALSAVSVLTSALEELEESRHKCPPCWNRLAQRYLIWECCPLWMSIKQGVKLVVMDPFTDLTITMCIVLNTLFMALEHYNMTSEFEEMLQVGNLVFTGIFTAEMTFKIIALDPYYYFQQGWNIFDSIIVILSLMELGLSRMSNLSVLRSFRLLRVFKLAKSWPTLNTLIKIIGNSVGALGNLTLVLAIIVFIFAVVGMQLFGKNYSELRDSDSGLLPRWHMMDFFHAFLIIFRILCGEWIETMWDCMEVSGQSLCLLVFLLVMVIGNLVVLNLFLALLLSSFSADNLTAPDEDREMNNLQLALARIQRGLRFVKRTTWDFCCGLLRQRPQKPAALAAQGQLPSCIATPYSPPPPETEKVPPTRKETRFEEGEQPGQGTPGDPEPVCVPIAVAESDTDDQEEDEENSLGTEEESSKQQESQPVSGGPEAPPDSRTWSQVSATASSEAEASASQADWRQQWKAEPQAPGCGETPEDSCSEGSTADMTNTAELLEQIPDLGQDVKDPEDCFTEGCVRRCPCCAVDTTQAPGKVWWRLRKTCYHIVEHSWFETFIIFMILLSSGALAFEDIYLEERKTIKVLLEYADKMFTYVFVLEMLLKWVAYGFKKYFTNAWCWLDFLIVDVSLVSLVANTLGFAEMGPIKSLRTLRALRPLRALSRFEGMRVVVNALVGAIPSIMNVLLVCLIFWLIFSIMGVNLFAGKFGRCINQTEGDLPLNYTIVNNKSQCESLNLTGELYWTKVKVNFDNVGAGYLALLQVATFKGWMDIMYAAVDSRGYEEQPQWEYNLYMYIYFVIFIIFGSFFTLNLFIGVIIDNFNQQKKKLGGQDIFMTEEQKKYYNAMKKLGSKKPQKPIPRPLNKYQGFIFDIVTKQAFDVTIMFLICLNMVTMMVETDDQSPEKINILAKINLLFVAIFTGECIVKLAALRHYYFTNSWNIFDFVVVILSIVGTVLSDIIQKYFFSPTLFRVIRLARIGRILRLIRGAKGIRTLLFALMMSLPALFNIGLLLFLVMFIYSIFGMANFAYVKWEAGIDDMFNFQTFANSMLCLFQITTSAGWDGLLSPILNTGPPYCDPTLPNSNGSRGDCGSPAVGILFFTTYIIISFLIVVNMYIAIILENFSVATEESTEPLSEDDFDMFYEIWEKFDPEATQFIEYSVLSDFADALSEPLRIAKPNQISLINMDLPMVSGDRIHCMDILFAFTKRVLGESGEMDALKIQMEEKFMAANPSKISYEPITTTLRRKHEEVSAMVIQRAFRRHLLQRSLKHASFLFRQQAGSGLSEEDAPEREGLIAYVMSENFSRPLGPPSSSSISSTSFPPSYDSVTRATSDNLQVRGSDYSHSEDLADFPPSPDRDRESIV
# Text: Voltage-gated sodium channels are responsible for the initial phase of the action potential, which is a wave of electrical depolarisation usually initiated at the soma of the neuron and propagated along the nerve axon to the terminals. At the terminals, the action potential triggers the influx of calcium and the release of neurotransmitter. The voltage-gated sodium channel family is made up of four brain specific subtypes, Nav1.1, 1.2, 1.3 and 1.6; as well as Nav1.4, which is found on skeletal muscle; Nav1.5, which is found on cardiac muscle; and Nav1.7, 1.8, 1.9, are found predominantly on sensory neurons.
# The effects of ICI-735 on action potential in a mammalian cell was tested. Briefly, it was observed that ICI-735 was able to block Nav1.5.
# AdrR2 receptor = assay: Receptor binding
# [3] = tested on: isolated rabbit Purkinje fibers; assay: Action potential of isolated rabbit Purkinje fibers
# Text: Further assessment in rabbit Punkinje fibers was undertaken to directly measure concentration-dependent changes in action potential induced by ICI-735.
# muscarinic receptor M3 [4] = target: T1, muscarinic receptor M3 (Homo sapiens, UniProt P20309); assay: In vitro functional antagonism; assay type: biochemical
# T1 sequence (P20309 whole entry): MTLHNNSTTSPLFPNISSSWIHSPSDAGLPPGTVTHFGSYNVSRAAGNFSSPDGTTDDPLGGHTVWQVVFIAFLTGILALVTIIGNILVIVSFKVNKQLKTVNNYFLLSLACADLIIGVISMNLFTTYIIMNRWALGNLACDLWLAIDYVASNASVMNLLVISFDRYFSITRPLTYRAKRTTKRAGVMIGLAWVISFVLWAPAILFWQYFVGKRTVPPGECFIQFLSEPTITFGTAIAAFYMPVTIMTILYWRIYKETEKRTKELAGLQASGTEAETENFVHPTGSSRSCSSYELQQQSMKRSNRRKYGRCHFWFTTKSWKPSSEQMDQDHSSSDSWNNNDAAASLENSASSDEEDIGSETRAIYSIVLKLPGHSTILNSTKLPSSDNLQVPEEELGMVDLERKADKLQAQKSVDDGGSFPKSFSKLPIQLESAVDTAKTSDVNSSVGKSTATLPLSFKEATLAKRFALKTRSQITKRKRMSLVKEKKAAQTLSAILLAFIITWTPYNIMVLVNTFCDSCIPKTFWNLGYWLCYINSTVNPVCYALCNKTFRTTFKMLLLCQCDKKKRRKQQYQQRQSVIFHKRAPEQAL
# [5] = tested on: panel of leukotriene and prostanoid receptors; assay: Receptor binding panel
# muscarinic receptor M3 [6] = target: T1, muscarinic receptor M3; assay: Receptor binding
smiles,measurement,setting,value
NCC(=O)NCCN1CCN(CCCN2c3ccccc3Sc3ccc(C(F)(F)F)cc32)CC1 [ICI-735],AHR in Af sensitized mice,"[1]; i.p. 1 mg/ml two hours prior to each intranasal challenge, flexivent four hours after last challenge",significantly inhibited
same,decrease of lung resistance / airway hyper-responsiveness to methacholine,"[1]; intraperitoneal, from 0.1 mg/kg, one hour before or with methacholine challenge, compared with dexamethasone 2.5 mg/kg",at least as effective as 2.5 mg/kg dexamethasone; also recorded: decreased airway hyperresponsiveness
same,effect on naive animal airway contraction,[1]; naive mice,no effect
same,decrease of lung resistance / airway hyper-responsiveness to methacholine,"[1]; oral (o.g.), 1 mg/kg or 10 mg/kg",effective at decreasing lung resistance
same,cytokine production in BAL,[2]; Af-sensitized mice,little effect; also recorded: no significant effects
same,total number of cells / immune cell infiltration in BAL,"[2]; asthmatic animals, treated vs untreated",not a significant difference; also recorded: little effect; also recorded: no significant effects
same,IC50,Nav1.5,8.33 µM
same,block of Nav1.5,Nav1.5,able to block
same,binding to AdrR2 receptor,AdrR2 receptor,does not bind; also recorded: weak or undetectable
same,effect on action potential duration at 60% (APD60) and APD90,[3],lack of effect
same,in vitro functional antagonism for muscarinic receptor M3,muscarinic receptor M3 [4],weak in vitro functional antagonism; also recorded: weak or undetectable
same,binding to a panel of leukotriene and prostanoid receptors,[5],does not bind
same,binding to muscarinic receptor M3,muscarinic receptor M3 [6],weak binding; also recorded: weak or undetectable
